{"source": "paper PMC11637378", "about": "“Optogenetic screening of MCT1 activity implicates a cluster of non-steroidal anti-inflammatory drugs (NSAIDs) as inhibitors of lactate transport” (PLOS ONE, 2024)", "note": "Values joined by “and” are separate entries in the source; they are usually repeats but may differ in a detail not shown here. Identical values can stand only once. Counter-ions that a name gives are not always drawn."}
{"tested_on": "parent strain (SAWy518)", "units": {"OffScreen_percentage": "percentage", "Read_percentage": "percentage"}}
{"smiles": "CCCc1c(-c2ccc(O)cc2)nn(-c2ccc(O)cc2)c1-c1ccc(O)cc1", "OffScreen_percentage": 98.9963, "Offscreen_18hr": 0.7989, "Offscreen_24hr": 0.9026, "Offscreen_42hr": 0.9515}
{"smiles": "CC(C)Cn1c(=O)n(C)c(=O)c2[nH]cnc21", "note": "[3-Isobutyl-1-methylxanthine, reference compound]", "Offtarget": "NO", "Offtarget_sub": 0.4308}
{"smiles": "O=C(/C=C/c1ccccc1)c1ccc(O)cc1", "note": "[4'-HYDROXYCHALCONE]", "Offscreen_18hr": 0.7341, "Offscreen_24hr": 0.8731, "Offscreen_42hr": 0.9266}
{"smiles": "O=C(/C=C/c1ccc(O)cc1)c1ccccc1", "note": "[4-hydroxychalcone, reference compound]", "OffScreen_percentage": 103.693, "Offscreen_18hr": 0.8368, "Offscreen_24hr": 0.9201, "Offscreen_42hr": 0.9804, "Read_percentage": 103.693}
{"smiles": "CC[n+]1c(/C=C/C=C2/N(C)c3ccccc3C2(C)C)sc2ccccc21.[I-]", "note": "[AC-93253 iodide]", "Offscreen_18hr": 0.3559, "Offscreen_24hr": 0.5533, "Offscreen_42hr": 0.821}
{"smiles": "C[n+]1c2cc(N)ccc2cc2ccc(N)cc21.[Cl-]", "note": "[ACRIFLAVINIUM HYDROCHLORIDE]", "Offscreen_18hr": 0.6168, "Offscreen_24hr": 0.8008, "Offscreen_42hr": 0.904}
{"smiles": "Nc1c2ccccc2nc2ccccc12", "note": "[AMINACRINE]", "Offscreen_18hr": 0.3466, "Offscreen_24hr": 0.4931, "Offscreen_42hr": 0.7904}
{"smiles": "Br.Br.N=C(N)SCCN", "note": "[AMINOETHYLISOTHIOUREA DIHYDROBROMIDE]", "Offscreen_18hr": 0.0502, "Offscreen_24hr": 0.0525, "Offscreen_42hr": 0.1802}
{"smiles": "C[C@@H]1CC[C@H]2[C@@H](C)C(=O)O[C@@H]3O[C@@]4(C)CC[C@@H]1[C@]32OO4", "note": "[ARTEMISININ]", "Offscreen_18hr": 0.4969, "Offscreen_24hr": 0.7016, "Offscreen_42hr": 0.8396}
{"smiles": "O=C1NC(=O)/C(=C/c2ccc(-c3ccc(F)cc3O)o2)S1", "note": "[AS-252424]", "Offscreen_18hr": 0.6896, "Offscreen_24hr": 0.8289, "Offscreen_42hr": 0.8951}
{"smiles": "CCCCc1oc2ccccc2c1C(=O)c1cc(I)c(OCCN(CC)CC)c(I)c1", "note": "[Amiodarone hydrochloride]", "Offscreen_18hr": 0.3754, "Offscreen_24hr": 0.6492, "Offscreen_42hr": 0.9258}
{"smiles": "N.S=C(S)N1CCCC1", "note": "[Ammonium pyrrolidinedithiocarbamate]", "Offscreen_18hr": 0.6686, "Offscreen_24hr": 0.8623, "Offscreen_42hr": 0.942}
{"smiles": "CO[C@H]1O[C@@H]2O[C@@]3(C)CC[C@H]4[C@H](C)CC[C@@H]([C@H]1C)[C@@]24OO3", "note": "[Artemether]", "Offscreen_18hr": 0.3535, "Offscreen_24hr": 0.4688, "Offscreen_42hr": 0.7035}
{"smiles": "Cc1ccc(S(=O)(=O)/C=C/C#N)cc1", "note": "[BAY 11-7082 (BAY 11-7821)]", "Offscreen_18hr": 0.151, "Offscreen_24hr": 0.3413, "Offscreen_42hr": 0.9249}
{"smiles": "CCCCCCCCCCCCC[N+](C)(C)Cc1ccccc1.[Cl-]", "note": "[BENZALKONIUM CHLORIDE]", "Offscreen_18hr": 0.0504, "Offscreen_24hr": 0.056, "Offscreen_42hr": 0.5903}
{"smiles": "CCc1oc2ccccc2c1C(=O)c1cc(Br)c(O)c(Br)c1", "note": "[BENZBROMARONE]", "Offscreen_18hr": 0.5194, "Offscreen_24hr": 0.7137, "Offscreen_42hr": 0.8516}
{"smiles": "COc1ccc(-c2coc3cc(OC(C)=O)cc(OC(C)=O)c3c2=O)cc1", "note": "[BIOCHANIN A DIACETATE]", "Offscreen_18hr": 0.8079, "Offscreen_24hr": 0.8835, "Offscreen_42hr": 0.9447}
{"smiles": "Cc1ccc(S(=O)(=O)/C=C/C#N)cc1", "note": "[Bay 11-7082]", "Offscreen_18hr": 0.1157, "Offscreen_24hr": 0.2743, "Offscreen_42hr": 0.896}
{"smiles": "CC(C)(C)c1ccc(S(=O)(=O)/C=C/C#N)cc1", "note": "[Bay 11-7085]", "Offscreen_18hr": "0.0422 and 0.0395", "Offscreen_24hr": "0.0424 and 0.04"}
{"smiles": "Cc1c(N)nc([C@H](CC(N)=O)NC[C@@H](N)C(N)=O)nc1C(=O)N[C@H](C(=O)N[C@@H](C)[C@H](O)[C@@H](C)C(=O)N[C@@H](C(=O)NCCc1nc(-c2nc(C(=O)NCCC[S+](C)C)cs2)cs1)[C@@H](C)O)C(O[C@H]1O[C@H](CO)[C@H](O)[C@@H](O)[C@H]1O[C@H]1O[C@H](CO)[C@@H](O)[C@H](OC(N)=O)[C@@H]1O)c1c[nH]cn1.O=S(=O)([O-])O", "note": "(some centres unmarked) [Bleomycin sulfate]", "Offscreen_18hr": 0.261, "Offscreen_24hr": 0.4579, "Offscreen_42hr": 0.8554}
{"smiles": "CC(C(=O)O)c1ccc2c(c1)[nH]c1ccc(Cl)cc12", "note": "(centres unmarked) [CARPROFEN]", "Offscreen_18hr": 0.7281, "Offscreen_24hr": 0.8523, "Offscreen_42hr": 0.8964}
{"smiles": "O=C1C(Cl)=C(Cl)C(=O)C(Cl)=C1Cl", "note": "[CHLORANIL]", "Offscreen_18hr": 0.1832, "Offscreen_24hr": 0.4077, "Offscreen_42hr": 0.9247}
{"smiles": "N#Cc1c(Cl)c(Cl)c(Cl)c(C#N)c1Cl", "note": "[CHLOROTHALONIL]", "Offscreen_18hr": 0.6512, "Offscreen_24hr": 0.8372, "Offscreen_42hr": 0.9297}
{"smiles": "Clc1ccccc1C(c1ccccc1)(c1ccccc1)n1ccnc1", "note": "[CLOTRIMAZOLE]", "Offscreen_18hr": 0.0789, "Offscreen_24hr": 0.1029, "Offscreen_42hr": 0.8087}
{"smiles": "Oc1c(Cl)cc(Cl)c2cccnc12", "note": "[Capitrol]", "Offscreen_18hr": 0.0472, "Offscreen_24hr": 0.0467, "Offscreen_42hr": 0.0526}
{"smiles": "[H]/N=C(\\N/C(=N/[H])NCCCCCCNC(=N)NC(=N)Nc1ccc(Cl)cc1)Nc1ccc(Cl)cc1", "note": "[Chlorhexidine hydrochloride]", "Offscreen_18hr": 0.5517, "Offscreen_24hr": 0.7908, "Offscreen_42hr": 0.9568}
{"smiles": "CCN(CC)CCOc1ccc(C(=C(Cl)c2ccccc2)c2ccccc2)cc1", "note": "[Clomifene citrate]", "Offscreen_18hr": 0.6687, "Offscreen_24hr": 0.875, "Offscreen_42hr": 0.9713}
{"smiles": "N#Cc1ccc(Oc2ccc3c(c2)COB3O)cc1", "note": "[Crisaborole]", "Offscreen_18hr": 0.594, "Offscreen_24hr": 0.7965, "Offscreen_42hr": 0.9431}
{"smiles": "Oc1ccc(Cl)cc1Cc1cc(Cl)ccc1O", "note": "[DICHLOROPHEN]", "Offscreen_18hr": 0.5869, "Offscreen_24hr": 0.7921, "Offscreen_42hr": 0.8823}
{"smiles": "C=CC(C1=CC(=O)C(OC)=CC1=O)c1ccc(O)cc1", "note": "(centres unmarked) [Dalbergione,4-methoxy-4-hydroxy-]", "OffScreen_percentage": 102.367, "Offscreen_18hr": 0.8261, "Offscreen_24hr": 0.9183, "Offscreen_42hr": 0.9703, "Read_percentage": 102.367}
{"smiles": "CCN(CC)C(=S)SSC(=S)N(CC)CC", "note": "[Disulfiram]", "Offscreen_18hr": 0.0526, "Offscreen_24hr": 0.0614, "Offscreen_42hr": 0.7775}
{"smiles": "COc1cccc2c1C(=O)c1c(O)c3c(c(O)c1C2=O)C[C@@](O)(C(=O)CO)C[C@H]3O[C@H]1C[C@H](N)[C@H](O)[C@H](C)O1.Cl", "note": "[Doxorubicin (Adriamycin)]", "Offscreen_18hr": 0.4346, "Offscreen_24hr": 0.6005, "Offscreen_42hr": 0.8771}
{"smiles": "O=c1c2ccccc2[se]n1-c1ccccc1", "note": "[EBSELEN]", "Offscreen_18hr": 0.0405, "Offscreen_24hr": 0.0408, "Offscreen_42hr": 0.0412}
{"smiles": "C=CCOC(Cn1ccnc1)c1ccc(Cl)cc1Cl.O=S(=O)(O)O", "note": "(centres unmarked) [ENILCONAZOLE SULFATE]", "Offscreen_18hr": 0.81, "Offscreen_24hr": 0.8908, "Offscreen_42hr": 0.9485}
{"smiles": "O=C([O-])c1ccccc1-c1c2cc(I)c(=O)c(I)c-2oc2c(I)c([O-])c(I)cc12.[Na+].[Na+]", "note": "[ERYTHROSINE SODIUM]", "Offscreen_18hr": 0.8136, "Offscreen_24hr": 0.8985, "Offscreen_42hr": 0.9466}
{"smiles": "O=C(O)Cc1ccc(-c2ccccc2)cc1", "note": "[FELBINAC]", "Offscreen_18hr": 0.6742, "Offscreen_24hr": 0.7657, "Offscreen_42hr": 0.7971}
{"smiles": "OC(Cn1cncn1)(Cn1cncn1)c1ccc(F)cc1F", "note": "[FLUCONAZOLE]", "Offscreen_18hr": 0.7681, "Offscreen_24hr": 0.8873, "Offscreen_42hr": 0.9468}
{"smiles": "Nc1[nH]c(=O)ncc1F", "note": "[FLUCYTOSINE]", "Offscreen_18hr": 0.7196, "Offscreen_24hr": 0.8771, "Offscreen_42hr": 0.9452}
{"smiles": "CCCCCCCCc1ccc(CCC(N)(CO)CO)cc1.Cl", "note": "[Fingolimod (FTY720)]", "Offscreen_18hr": 0.0535, "Offscreen_24hr": 0.0624, "Offscreen_42hr": 0.7799}
{"smiles": "COc1ncc(-c2ccc3nccc(-c4ccnnc4)c3c2)cc1NS(=O)(=O)c1ccc(F)cc1F", "note": "[GSK2126458 (GSK458)]", "Offscreen_18hr": 0.433, "Offscreen_24hr": 0.6688, "Offscreen_42hr": 0.9364}
{"smiles": "CCCCCCc1ccc(O)cc1O", "note": "[HEXYLRESORCINOL]", "Offscreen_18hr": 0.6446, "Offscreen_24hr": 0.822, "Offscreen_42hr": 0.8874}
{"smiles": "O=C(Nc1cc(C(F)(F)F)cc(C(F)(F)F)c1)c1cc(Cl)ccc1O", "note": "[IMD 0354]", "Offscreen_18hr": 0.1675, "Offscreen_24hr": 0.2933, "Offscreen_42hr": 0.8452}
{"smiles": "CCC(Cc1c(I)cc(I)c(N)c1I)C(=O)O", "note": "(centres unmarked) [IOPANIC ACID]", "Offscreen_18hr": 0.6491, "Offscreen_24hr": 0.7855, "Offscreen_42hr": 0.8261}
{"smiles": "Oc1ccc2ccccc2c1SSc1c(O)ccc2ccccc12", "note": "[IPA-3]", "Offscreen_18hr": 0.0457, "Offscreen_24hr": 0.0481, "Offscreen_42hr": 0.1263}
{"smiles": "CCC(C)n1ncn(-c2ccc(N3CCN(c4ccc(OC[C@H]5CO[C@](Cn6cncn6)(c6ccc(Cl)cc6Cl)O5)cc4)CC3)cc2)c1=O.Cl.Cl", "note": "(some centres unmarked) [ITRACONAZOLE HYDROCHLORIDE]", "Offscreen_18hr": 0.8063, "Offscreen_24hr": 0.8859, "Offscreen_42hr": 0.9404}
{"smiles": "CC(=O)[C@]1(O)Cc2c(O)c3c(c(O)c2[C@@H](O[C@H]2C[C@H](N)[C@H](O)[C@H](C)O2)C1)C(=O)c1ccccc1C3=O", "note": "[Idarubicin HCl]", "Offscreen_18hr": 0.1605, "Offscreen_24hr": 0.1891, "Offscreen_42hr": 0.402}
{"smiles": "CC(=O)[C@]1(O)Cc2c(O)c3c(c(O)c2[C@@H](O[C@H]2C[C@H](N)[C@H](O)[C@H](C)O2)C1)C(=O)c1ccccc1C3=O", "note": "[Idarubicin]", "Offscreen_18hr": 0.154, "Offscreen_24hr": 0.1842, "Offscreen_42hr": 0.3602}
{"smiles": "O=C1Nc2ccccc2/C1=C1/Nc2ccccc2/C1=N\\O", "note": "[Indirubin-3'-oxime]", "Offscreen_18hr": 0.6559, "Offscreen_24hr": 0.8248, "Offscreen_42hr": 0.9006}
{"smiles": "CC(C)NNC(=O)c1ccncc1.O=P(O)(O)O", "note": "[Iproniazid phosphate, reference compound]", "Offtarget": "NO", "Offtarget_sub": 0.4143}
{"smiles": "CCC(C)n1ncn(-c2ccc(N3CCN(c4ccc(OC[C@H]5CO[C@](Cn6cncn6)(c6ccc(Cl)cc6Cl)O5)cc4)CC3)cc2)c1=O", "note": "(some centres unmarked) [Itraconazole (Sporanox)]", "Offscreen_18hr": 0.7339, "Offscreen_24hr": 0.8546, "Offscreen_42hr": 0.8998}
